Measured values as given in patent publication US7879838B2, “Heteroaryl substituted pyrazinyl-piperazine-piperidines with CXCR3 antagonist activity” (Schering Corporation, priority 2005, dated 2011).

molecular target: T1, Human CXCR3 (N-delta 4) (Homo sapiens, UniProt P49682); assay: Human CXCR3 (N-delta 4) scintillation proximity assay (SPA), [125I] IP-10 binding to Ba/F3-hCXCR3 membranes; conditions: IC50 rating; 25 pM [125I] IP-10, membranes of Ba/F3 cells expressing human CXCR3 (N-delta 4)
T1 construct: CD8 leader (N); Flag tag; expressed in transfected cells; membranes prepared
T1 sequence (P49682 5-368 limits assumed): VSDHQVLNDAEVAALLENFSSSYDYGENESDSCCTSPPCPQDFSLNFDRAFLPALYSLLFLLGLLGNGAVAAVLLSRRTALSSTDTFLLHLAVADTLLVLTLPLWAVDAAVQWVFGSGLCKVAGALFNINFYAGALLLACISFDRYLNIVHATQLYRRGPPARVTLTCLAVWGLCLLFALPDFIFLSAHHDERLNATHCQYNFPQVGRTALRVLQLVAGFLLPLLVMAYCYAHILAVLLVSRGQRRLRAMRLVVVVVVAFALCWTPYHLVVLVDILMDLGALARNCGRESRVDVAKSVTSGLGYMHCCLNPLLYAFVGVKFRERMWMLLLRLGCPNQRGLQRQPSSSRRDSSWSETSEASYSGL
From the text: The inventive compounds can readily be evaluated to determine activity at The CXCR3 receptors by known methods, such as, for example, Development of Human CXCR3 (N-delta 4) Binding Assay.
Cloning and Expression of Human CXCR3 (N-delta 4):
The DNA encoding human CXCR3 was cloned by PCR using human genomic DNA (Promega, Madison, Wis.) as a template. The PCR primers were designed based on the published sequence of human orphan receptor GPR9 (1) with incorporated restriction sites, a Kozak consensus sequence, CD8 leader and Flag tag. The PCR product was subcloned into the mammalian expression vector pME18Sneo, a derivative of the SR-alpha expression vector (designated as pME18Sneo-hCXCR3 (N-delta 4).
IL-3-dependent mouse pro-B cells Ba/F3 were transfected by electroporation in 0.4 ml Dulbecco's PBS containing 4×10^6 cells with 20 μg of pME18Sneo-hCXCR3 (N-delta 4) plasmid DNA. Cells were pulsed at 400 Volts, 100 OHMs, 960 μFd. The transfected cells were under selection with 1 mg/ml G418 (Life Technologies, Gaithersburg, Md.). G418-resistant Ba/F3 clones were screened for CXCR3 expression by specific binding of [^125I] IP-10 (NEN Life Science Products, Boston, Mass.).
Preparation of Ba/F3-hCXCR3 (N-delta 4) Membranes
Ba/F3 cells expressing human CXCR3 (N-delta 4) were pelleted and resuspended in the lysis buffer containing 10 mM HEPES, pH 7.5 and Complete® protease inhibitors (1 tablet per 100 ml) (Boehringer Mannheim, Indianapolis, Ind.) at a cell density of 20×10^6 cells per ml. After 5 minutes incubation on ice, cells were transferred to 4639 cell disruption bomb (Parr Instrument, Moline, Ill.) and applied with 1,500 psi of nitrogen for 30 minutes on ice. Large cellular debris was removed by centrifugation at 1,000×g. Cell membrane in the supernatant was sedimented at 100,000×g. The membrane was resuspended in the lysis buffer supplemented with 10% sucrose and stored at −80° C. Total protein concentration of the membrane was determined by BCA method from Pierce (Rockford, Ill.).
Human CXCR3 (N-delta 4) Scintillation Proximity Assay (SPA)
For each assay point, 2 μg of membrane was preincubated for 1 hr with 300 μg wheat germ agglutinin (WGA) coated SPA beads (Amersham, Arlington Heights, Ill.) in the binding buffer (50 mM HEPES, 1 mM CaCl2, 5 mM MgCl2, 125 mM NaCl, 0.002% NaN3, 1.0% BSA) at room temperature. The beads were spun down, washed once, resuspended in the binding buffer and transferred to a 96-well Isoplate (Wallac, Gaithersburg, Md.). 25 pM of [^125I] IP-10 with tested compounds in a series of titration were added to start the reaction. After 3 hr reaction at room temperature, the amount of [^125I] IP-10 bound to the SPA beads was determined with a Wallac 1450 Microbeta counter.
The Ki values for the various example compounds of the present invention are given in the afore-mentioned Table 1. From these values, it would be apparent to the skilled artisan that the compounds of the invention have excellent utility CXCR3 antagonists.

First: CC[C@H]1CN(c2ncc(C(=O)O)nc2Cl)CCN1C1CCN(C(=O)c2ccc(Cl)nc2N)CC1 [compound 99]
Second: CC[C@H]1CN(c2ncc(C(=O)NC)nc2Cl)CCN1C1CCN(C(=O)c2ccc(Cl)nc2N)CC1 [compound 122]
The IC50 of the first is higher: over 100 nM for the first, under 25 nM for the second. The second is the more potent here.

First: CC[C@H]1CN(c2nc(N)c(C(=O)Nc3cc(O)[nH]n3)nc2Cl)CCN1C1CCN(C(=O)c2ccc(Cl)nc2N)CC1 [compound 100]
Second: CC[C@H]1CN(c2nc(N)c(C(=O)Nc3cc(C)[nH]n3)nc2Cl)CCN1C1CCN(C(=O)c2ccc(Cl)nc2N)CC1 [compound 132]
The IC50 of the first is higher: over 100 nM for the first, 25 to 100 nM for the second.

`CC[C@H]1CN(c2nc(N)c(C(=O)NC(=N)n3cccn3)nc2Cl)CCN1C1CCN(C(=O)c2ccc(Cl)nc2N)CC1` [compound 101] and `CC[C@H]1CN(c2nc(N)c(C(=O)O)nc2Cl)CCN1C1CCN(C(=O)c2ccc(Cl)nc2N)CC1` [compound 109] cannot be ordered by IC50: over 100 nM for the first, over 100 nM for the second.

`CC[C@H]1CN(c2nc(N)c(C(=O)NN)nc2Cl)CCN1C1CCN(C(=O)c2c(C)noc2C)CC1` [compound 102] and `CC[C@H]1CN(c2nc(N)c(C(=O)NN)nc2Cl)CCN1C1CCN(S(=O)(=O)c2c(C)noc2C)CC1` [compound 111] cannot be ordered by IC50: over 100 nM for the first, over 100 nM for the second.

`CC[C@H]1CN(c2nc(N)c(C(=O)NCCO)nc2Cl)CCN1C1CCN(C(=O)c2ccc(C)nc2O)CC1` [compound 103] and `CC[C@H]1CN(c2nc(N)c(C(=O)NCCO)nc2Cl)CCN1C1CCN(C(=O)c2ccc(C)nc2Cl)CC1` [compound 138] cannot be ordered by IC50: over 100 nM for the first, over 100 nM for the second.

`CC[C@H]1CN(c2nc(N)c(C(=O)NCCO)nc2Cl)CCN1C1CCN(Cc2ccc3nccn3c2)CC1` [compound 104] and `CC[C@H]1CN(c2nc(N)c(C(=O)NCCO)nc2Cl)CCN1C1CCN(C(=O)c2nccnc2N)CC1` [compound 117] cannot be ordered by IC50: over 100 nM for the first, over 100 nM for the second.

`CC[C@H]1CN(c2nc(NCC3CC3)c(C(=O)OC)nc2Cl)CCN1C1CCN(C(=O)c2ccc(Cl)nc2N)CC1` [compound 105] and `CC[C@H]1CN(c2nc(N)c(C(=O)N(C)OC)nc2Cl)CCN1C1CCN(C(=O)c2ccc(Cl)nc2N)CC1` [compound 137] cannot be ordered by IC50: over 100 nM for the first, over 100 nM for the second.

Compared with `CC[C@H]1CN(c2nc(N)c(C(=O)NCCO)nc2Cl)CCN1C1CCN(C(=O)c2ccc(C(N)=O)nc2N)CC1` [compound 106], `CC[C@H]1CN(c2nc(N)c(C(=O)NCCO)nc2Cl)CCN1C1CCN(C(=O)c2ccc(OC)nc2N)CC1` [compound 133] is lower in IC50: over 100 nM for the first, 25 to 100 nM for the second.

`CC[C@H]1CN(c2nc(N)c(C(N)=O)nc2Cl)CCN1C1CCN(C(=O)c2ccc(-n3cncn3)nc2)CC1` [compound 107] and `CC[C@H]1CN(c2nc(N)c(C(N)=O)nc2Cl)CCN1C1CCN(C(=O)c2ccc(Cl)n3ccnc23)CC1` [compound 114] cannot be ordered by IC50: over 100 nM for the first, over 100 nM for the second.

`CC[C@H]1CN(c2nc(N)c(C(=O)NC)nc2Cl)CCN1C1CCN(Cc2cc(Cl)nc(Cl)c2)CC1` [compound 108] and `CC[C@H]1CN(c2nc(N)c(C(=O)NC)nc2Cl)CCN1C1CCN(C(=O)c2cc(Cl)nc(Cl)c2)CC1` [compound 116] cannot be ordered by IC50: over 100 nM for the first, over 100 nM for the second.

`CC[C@H]1CN(c2nc(N)c(C(=O)NC)nc2Cl)CCN1C1CCN(C(=O)c2ccnc(Cl)c2)CC1` [compound 110] and `CC[C@H]1CN(c2nc(N)c(C(=O)NC)nc2Cl)CCN1C1CCN(C(=O)c2cnc(C)cn2)CC1` [compound 112] cannot be ordered by IC50: over 100 nM for the first, over 100 nM for the second.

`CC[C@H]1CN(c2nc(N)c(C(N)=O)nc2Cl)CCN1C1CCN(CC2COc3ccccc3O2)CC1` (stereo partly shown) [compound 113] and `CC[C@H]1CN(c2nc(N)c(C(N)=O)nc2Cl)CCN1C1CCN(Cc2ccc(Cl)c3[nH]c(=O)[nH]c23)CC1` [compound 143] cannot be ordered by IC50: over 100 nM for the first, over 100 nM for the second.

Compared with `CC[C@H]1CN(c2nc(N)c(C(N)=O)nc2Cl)CCN1C1CCN(C(=O)c2ncc(C)nc2N)CC1` [compound 115], `CC[C@H]1CN(c2nc(N)c(C(N)=O)nc2Cl)CCN1C1CCN(C(=O)c2ccc(OC)nc2N)CC1` [compound 135] is lower in IC50: over 100 nM for the first, 25 to 100 nM for the second. The second is the more potent here.

`CC[C@H]1CN(c2ncc(C(=O)NC(C)C)nc2Cl)CCN1C1CCN(C(=O)c2ccc(Cl)nc2N)CC1` [compound 118] and `CC[C@H]1CN(c2ncc(C(=O)NC(C)C)nc2C)CCN1C1CCN(C(=O)c2ccc(Cl)nc2N)CC1` [compound 123] cannot be ordered by IC50: under 25 nM for the first, under 25 nM for the second.

`CC[C@H]1CN(c2ncc(C(=O)NC3CC3)nc2Cl)CCN1C1CCN(C(=O)c2ccc(Cl)nc2N)CC1` [compound 119] and `CC[C@H]1CN(c2ncc(C(=O)NCCO)nc2Cl)CCN1C1CCN(C(=O)c2ccc(Cl)nc2N)CC1` [compound 125] cannot be ordered by IC50: under 25 nM for the first, under 25 nM for the second.

`CC[C@H]1CN(c2ncc(C(=O)NC(C)(C)C)nc2Cl)CCN1C1CCN(C(=O)c2ccc(Cl)nc2N)CC1` [compound 120] and `CCNC(=O)c1cnc(N2CCN(C3CCN(C(=O)c4ccc(Cl)nc4N)CC3)[C@@H](CC)C2)c(C)n1` [compound 126] cannot be ordered by IC50: under 25 nM for the first, under 25 nM for the second.

`CC[C@H]1CN(c2ncc(C(N)=O)nc2C(F)(F)F)CCN1C1CCN(C(=O)c2ccc(Cl)nc2N)CC1` [compound 121] and `CC[C@H]1CN(c2ncc(C(N)=O)nc2C)CCN1C1CCN(C(=O)c2ccc(Cl)nc2N)CC1` [compound 129] cannot be ordered by IC50: under 25 nM for the first, under 25 nM for the second.

First: CC[C@H]1CN(c2ncc(C(=O)NCCO)nc2C)CCN1C1CCN(C(=O)c2ccc(Cl)nc2N)CC1 [compound 124]
Second: CC[C@H]1CN(c2ncc(C(N)=O)nc2C)CCN1C1CCN(C(=O)c2ccc(C)nc2N)CC1 [compound 136]
The IC50 of the first is lower: under 25 nM for the first, over 100 nM for the second.

Compared with `CC[C@H]1CN(c2ncc(C(N)=O)nc2C)[C@H](C)CN1C1CCN(C(=O)c2ccc(Cl)nc2N)CC1` [compound 128], `CC[C@H]1CN(c2nc(N)c(C(=O)NNC(C)=O)nc2Cl)CCN1C1CCN(C(=O)c2ccc(Cl)nc2N)CC1` [compound 134] is higher in IC50: under 25 nM for the first, 25 to 100 nM for the second.

`CC[C@H]1CN(c2nc(N)c(C(=O)Nc3ccncc3)nc2Cl)CCN1C1CCN(C(=O)c2ccc(Cl)nc2N)CC1` [compound 130] and `CC[C@H]1CN(c2nc(N)c(C(=O)Nc3ccc(Cl)cc3)nc2Cl)CCN1C1CCN(C(=O)c2ccc(Cl)nc2N)CC1` [compound 149] cannot be ordered by IC50: under 25 nM for the first, under 25 nM for the second.

First: CC[C@H]1CN(c2nc(N)c(C(=O)NC)nc2Cl)CCN1C1CCN(C(=O)c2ccc(OC)nc2N)CC1 [compound 131]
Second: CC[C@H]1CN(c2nc(N)c(C(=O)NC3CC3)nc2Cl)CCN1C1CCN(C(=O)c2sc(C)nc2C)CC1 [compound 139]
The IC50 of the first is lower: 25 to 100 nM for the first, over 100 nM for the second. The first is the more potent here.

`CC[C@H]1CN(c2nc(N)c(C(=O)NC)nc2Cl)CCN1C1CCN(Cc2coc3ccc(Cl)cc3c2=O)CC1` [compound 140] and `CC[C@H]1CN(c2nc(N)c(C(=O)NC)nc2Cl)CCN1C1CCN(Cc2coc3cc(C)c(Cl)cc3c2=O)CC1` [compound 144] cannot be ordered by IC50: under 25 nM for the first, under 25 nM for the second.

Going from `CC[C@H]1CN(c2nc(N)c(C(=O)NC3CC3)nc2Cl)CCN1C1CCN(Cc2cc(-c3ccccc3)oc2C)CC1` [compound 141] to `CC[C@H]1CN(c2nc(N)c(C(=O)NC3CC3)nc2Cl)CCN1C1CCN(Cc2cnc(-c3ccccc3)nc2C)CC1` [compound 145], the IC50 rises from under 25 nM to over 100 nM.

First: CC[C@H]1CN(c2nc(N)c(C(N)=O)nc2Cl)CCN1C1CCN(Cc2ccc(Cl)c3nc(C(F)(F)F)[nH]c23)CC1 [compound 142]
Second: CC[C@H]1CN(c2nc(N)c(C(N)=O)nc2Cl)CCN1C1CCN(C2OC(C(=O)N(C)C)c3cc(Cl)ccc32)CC1 (stereo partly shown) [compound 147]
The IC50 of the first is higher: over 100 nM for the first, 25 to 100 nM for the second.

Work on `CC[C@H]1CN(c2nc(N)c(C(=O)NCCO)nc2Cl)CCN1C1CCN(C2CCOc3cc(C#N)ccc32)CC1` (stereo partly shown) [compound 148] yielded an IC50 of over 100 nM.
